Here are results for 33 compounds from patent US8143408B2, “N-(8-heteroaryltetrahydronaphtalene-2yl) or N-(5-heteroarylchromane-3-yl) carboxamide derivatives for the treatment of pain” (AstraZeneca AB, priority 2007, dated 2012).

What is called IC50 is the concentration at which inhibition is half-maximal. A high value points to a need for much substance.

T1 sequence (Q15858 whole entry): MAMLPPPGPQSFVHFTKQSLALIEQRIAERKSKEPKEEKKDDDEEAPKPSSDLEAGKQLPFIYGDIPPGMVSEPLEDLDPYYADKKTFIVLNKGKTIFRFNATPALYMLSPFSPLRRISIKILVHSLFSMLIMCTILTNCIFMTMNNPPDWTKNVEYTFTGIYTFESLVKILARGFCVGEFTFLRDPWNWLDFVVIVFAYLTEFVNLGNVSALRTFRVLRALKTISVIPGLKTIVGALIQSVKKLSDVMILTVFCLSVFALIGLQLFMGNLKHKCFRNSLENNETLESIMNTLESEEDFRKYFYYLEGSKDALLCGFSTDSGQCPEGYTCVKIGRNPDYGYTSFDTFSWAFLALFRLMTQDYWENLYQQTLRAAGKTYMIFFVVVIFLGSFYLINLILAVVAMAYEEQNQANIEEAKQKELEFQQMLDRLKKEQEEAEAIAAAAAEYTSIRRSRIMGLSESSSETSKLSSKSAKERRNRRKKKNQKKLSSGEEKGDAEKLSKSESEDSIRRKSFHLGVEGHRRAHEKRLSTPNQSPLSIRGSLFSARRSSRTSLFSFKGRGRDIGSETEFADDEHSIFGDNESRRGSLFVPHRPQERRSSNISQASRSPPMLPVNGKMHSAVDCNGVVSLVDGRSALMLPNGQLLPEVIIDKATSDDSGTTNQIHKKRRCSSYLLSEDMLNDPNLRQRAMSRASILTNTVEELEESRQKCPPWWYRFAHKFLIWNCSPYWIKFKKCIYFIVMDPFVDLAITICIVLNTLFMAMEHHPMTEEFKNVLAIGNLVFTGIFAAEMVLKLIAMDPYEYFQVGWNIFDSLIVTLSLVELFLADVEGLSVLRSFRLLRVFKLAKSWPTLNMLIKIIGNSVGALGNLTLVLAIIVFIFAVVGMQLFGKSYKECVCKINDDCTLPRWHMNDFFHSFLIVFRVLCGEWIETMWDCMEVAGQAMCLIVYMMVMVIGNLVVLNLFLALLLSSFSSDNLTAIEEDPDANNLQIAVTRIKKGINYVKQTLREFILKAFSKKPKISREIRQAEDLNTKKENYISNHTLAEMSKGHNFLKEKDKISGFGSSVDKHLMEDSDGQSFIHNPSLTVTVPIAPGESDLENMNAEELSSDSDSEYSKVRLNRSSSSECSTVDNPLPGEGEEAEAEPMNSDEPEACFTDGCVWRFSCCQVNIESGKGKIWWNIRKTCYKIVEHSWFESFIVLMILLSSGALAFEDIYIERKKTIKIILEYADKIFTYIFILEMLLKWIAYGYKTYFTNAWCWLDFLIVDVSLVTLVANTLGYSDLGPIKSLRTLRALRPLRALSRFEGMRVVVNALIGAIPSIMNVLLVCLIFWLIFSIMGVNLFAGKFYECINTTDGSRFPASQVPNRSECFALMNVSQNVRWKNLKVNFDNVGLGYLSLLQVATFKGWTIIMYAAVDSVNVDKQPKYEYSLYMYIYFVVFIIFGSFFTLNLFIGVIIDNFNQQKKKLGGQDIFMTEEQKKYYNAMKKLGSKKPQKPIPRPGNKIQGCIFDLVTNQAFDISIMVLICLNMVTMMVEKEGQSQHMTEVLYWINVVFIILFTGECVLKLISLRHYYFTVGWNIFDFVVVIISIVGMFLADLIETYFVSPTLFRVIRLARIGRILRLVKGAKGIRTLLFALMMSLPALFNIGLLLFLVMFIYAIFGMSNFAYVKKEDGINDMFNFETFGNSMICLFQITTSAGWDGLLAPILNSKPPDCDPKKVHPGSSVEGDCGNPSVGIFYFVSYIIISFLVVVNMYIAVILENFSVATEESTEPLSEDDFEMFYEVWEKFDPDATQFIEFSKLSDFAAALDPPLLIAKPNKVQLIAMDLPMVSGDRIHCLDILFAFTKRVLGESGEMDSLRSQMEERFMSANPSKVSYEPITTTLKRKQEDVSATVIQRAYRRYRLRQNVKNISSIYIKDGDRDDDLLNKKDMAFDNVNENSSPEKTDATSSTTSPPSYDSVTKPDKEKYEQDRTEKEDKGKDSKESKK

The assay has as its target T1, Nav1.7 voltage-gated sodium channel (Homo sapiens, UniProt Q15858).
T1 construct: Gene(s) encoding the full-length protein of the voltage-gated sodium channel of interest are cloned and expressed; expressed in transfected cells
In words: Whole-cell voltage clamp electrophysiology assay. It counts as cell-based. Conditions: cells stably expressing the voltage-gated sodium channel of interest. The method, boiled down:
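Cells expressing full-length channel, exposed to drug by integrated pipetting on automated patch-clamp platforms or by microperfusion in conventional whole-cell patch clamp. Channels activated by a voltage protocol depolarising from a defined holding potential; buffers per platform manufacturer.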
Compound `COc1ncc(-c2cccc3c2C[C@H](NC(=O)c2ccc(OC(C)C)nc2)CC3)cn1` [Example 82, 6-isopropoxy-N-[(2R)-8-(2-methoxypyrimidin-5-yl)-1,2,3,4-tetrahydronaphthalen-2-yl]nicotinamide] showed a half-inhibitory concentration (IC50) of 2.51 µM.
On to `COc1cnc(C(=O)N[C@@H]2COc3cccc(-c4cnc(OC)nc4)c3C2)cn1` [Example 83, 5-methoxy-N-[(3S)-5-(2-methoxypyrimidin-5-yl)-3,4-dihydro-2H-chromen-3-yl]pyrazine-2-carboxamide], for which the IC50 is 5.01 µM. This IC50 is about 2-fold higher than that of the compound before.
For `COc1ncc(-c2cccc3c2C[C@H](NC(=O)c2ccc(OCCC(F)(F)F)nc2)CC3)cn1` [Example 84, N-[(2R)-8-(2-methoxypyrimidin-5-yl)-1,2,3,4-tetrahydronaphthalen-2-yl]-6-(3,3,3-trifluoropropoxy)nicotinamide] the value was 0.398 µM; for `COc1ncc(-c2cccc3c2C[C@H](NC(=O)c2ccc(OCC(F)(F)F)nc2)CC3)cn1` [Example 85, N-[(2R)-8-(2-methoxypyrimidin-5-yl)-1,2,3,4-tetrahydronaphthalen-2-yl]-6-(2,2,2-trifluoroethoxy)nicotinamide], 0.501 µM; for `O=C(N[C@@H]1CCc2cccc(-c3cccnc3F)c2C1)c1ccc(OCC(F)(F)F)nc1` [Example 87, N-[(2R)-8-(2-fluoropyridin-3-yl)-1,2,3,4-tetrahydronaphthalen-2-yl]-6-(2,2,2-trifluoroethoxy)nicotinamide], 0.2 µM.
Then `COc1ncc(-c2cccc3c2C[C@H](NC(=O)c2ccc(OCC(F)(F)F)nc2)CO3)cc1F` [Example 88, N-[(3S)-5-(5-fluoro-6-methoxypyridin-3-yl)-3,4-dihydro-2H-chromen-3-yl]-6-(2,2,2-trifluoroethoxy)nicotinamide], with 0.398 µM; and `COc1ncc(-c2cccc3c2C[C@H](NC(=O)c2cnc(OCC(F)(F)F)nc2C)CO3)cn1` [Example 89, N-[(3S)-5-(2-methoxypyrimidin-5-yl)-3,4-dihydro-2H-chromen-3-yl]-4-methyl-2-(2,2,2-trifluoroethoxy)pyrimidine-5-carboxamide], with 2 µM; and `COc1ncc(-c2cccc3c2C[C@H](NC(=O)c2cnc(OCC(F)(F)F)nc2C)CC3)cn1` [Example 90, N-[(2R)-8-(2-methoxypyrimidin-5-yl)-1,2,3,4-tetrahydronaphthalen-2-yl]-4-methyl-2-(2,2,2-trifluoroethoxy)pyrimidine-5-carboxamide], with 1.58 µM.
Then `O=C(N[C@@H]1COc2cccc(-c3ccc4nccn4c3)c2C1)c1ccc(OCC(F)(F)F)nc1` [Example 91, N-[(3S)-5-imidazo[1,2-a]pyridin-6-yl-3,4-dihydro-2H-chromen-3-yl]-6-(2,2,2-trifluoroethoxy)nicotinamide], with 0.0794 µM.
In turn, `COc1ncc(-c2cccc3c2C[C@H](NC(=O)c2cnc(OC(C)C)nc2C)CO3)cn1` [Example 92, 2-isopropoxy-N-[(3S)-5-(2-methoxypyrimidin-5-yl)-3,4-dihydro-2H-chromen-3-yl]-4-methylpyrimidine-5-carboxamide] showed a 50% inhibitory concentration (IC50) of 5.01 µM.
For the compound `CCOc1ncc(-c2cccc3c2C[C@H](NC(=O)c2ccc(OCC(F)(F)F)nc2)CO3)cn1` [Example 93, N-[(3S)-5-(2-ethoxypyrimidin-5-yl)-3,4-dihydro-2H-chromen-3-yl]-6-(2,2,2-trifluoroethoxy)nicotinamide], the IC50 was 0.631 µM.
For `COc1ncc(-c2cccc3c2C[C@H](NC(=O)c2ccc(OC4CCC4)nc2)CO3)cc1F` [Example 94, 6-(cyclobutyloxy)-N-[(3S)-5-(5-fluoro-6-methoxypyridin-3-yl)-3,4-dihydro-2H-chromen-3-yl]nicotinamide] the value was 0.794 µM; for `CCc1ncc(-c2cccc3c2C[C@H](NC(=O)c2ccc(OCC(F)(F)F)nc2)CO3)cn1` [Example 95, N-[(3S)-5-(2-ethylpyrimidin-5-yl)-3,4-dihydro-2H-chromen-3-yl]-6-(2,2,2-trifluoroethoxy)nicotinamide], 0.158 µM; for `O=C(N[C@@H]1COc2cccc(-c3cnc(C4CC4)nc3)c2C1)c1ccc(OCCCF)nc1` [Example 96, N-[(3S)-5-(2-cyclopropylpyrimidin-5-yl)-3,4-dihydro-2H-chromen-3-yl]-6-(3-fluoropropoxy)nicotinamide], 0.0501 µM.
For `COc1ncc(-c2cccc3c2C[C@H](NC(=O)c2ccc(OCCC(F)(F)F)nc2)CO3)cc1F` [Example 97, N-[(3S)-5-(5-fluoro-6-methoxypyridin-3-yl)-3,4-dihydro-2H-chromen-3-yl]-6-(3,3,3-trifluoropropoxy)nicotinamide] the value was 0.398 µM; for `COc1cc(-c2cccc3c2C[C@H](NC(=O)c2ccc(OCC(F)(F)F)nc2)CO3)c(OC)nn1` [Example 98, N-[(3S)-5-(3,6-dimethoxypyridazin-4-yl)-3,4-dihydro-2H-chromen-3-yl]-6-(2,2,2-trifluoroethoxy)nicotinamide], 6.31 µM; for `Cc1cncc(-c2cccc3c2C[C@H](NC(=O)c2ccc(OCC(F)(F)F)nc2)CO3)n1` [Example 99, N-[(3S)-5-(6-methylpyrazin-2-yl)-3,4-dihydro-2H-chromen-3-yl]-6-(2,2,2-trifluoroethoxy)nicotinamide], 0.398 µM.
Then `COc1ncc(-c2cccc3c2C[C@H](NC(=O)c2ccc(OCCCF)nc2)CO3)cn1` [Example 100, 6-(3-fluoropropoxy)-N-[(3S)-5-(2-methoxypyrimidin-5-yl)-3,4-dihydro-2H-chromen-3-yl]nicotinamide], with 0.398 µM; and `Cc1ncc(-c2cccc3c2C[C@H](NC(=O)c2ccc(OCCCF)nc2)CO3)cn1` [Example 101, 6-(3-fluoropropoxy)-N-[(3S)-5-(2-methylpyrimidin-5-yl)-3,4-dihydro-2H-chromen-3-yl]nicotinamide], with 0.158 µM.
As for `Cc1ncc(-c2cccc3c2C[C@H](NC(=O)c2ccc(OCC(F)(F)F)nc2)CO3)cn1` [Example 102, N-[(3S)-5-(2-methylpyrimidin-5-yl)-3,4-dihydro-2H-chromen-3-yl]-6-(2,2,2-trifluoroethoxy)nicotinamide], the half-inhibitory concentration (IC50) was 0.1 µM.
For `Cc1ncc(-c2cccc3c2C[C@H](NC(=O)c2ccnc(OC(C)C)c2)CO3)cn1` [Example 104, 2-isopropoxy-N-[(3S)-5-(2-methylpyrimidin-5-yl)-3,4-dihydro-2H-chromen-3-yl]isonicotinamide] the value was 2.51 µM; for `Cc1ncc(-c2cccc3c2C[C@H](NC(=O)c2ccc(OC4CCC4)nc2)CO3)cn1` [Example 105, 6-(cyclobutyloxy)-N-[(3S)-5-(2-methylpyrimidin-5-yl)-3,4-dihydro-2H-chromen-3-yl]nicotinamide], 0.0631 µM.
Then `COc1ncc(-c2cccc3c2C[C@H](NC(=O)c2ccc(OC4CCC4)nc2)CO3)cn1` [Example 106, 6-(cyclobutyloxy)-N-[(3S)-5-(2-methoxypyrimidin-5-yl)-3,4-dihydro-2H-chromen-3-yl]nicotinamide], with 0.251 µM; and `COc1ncc(-c2cccc3c2C[C@H](NC(=O)c2ccnc(OC(C)C)c2)CO3)cn1` [Example 107, 2-isopropoxy-N-[(3S)-5-(2-methoxypyrimidin-5-yl)-3,4-dihydro-2H-chromen-3-yl]isonicotinamide], with 3.98 µM.
Then `Cc1cnc(-c2cccc3c2C[C@H](NC(=O)c2ccc(OCCCF)nc2)CO3)c(C)n1` [Example 108, N-[(3S)-5-(3,5-dimethylpyrazin-2-yl)-3,4-dihydro-2H-chromen-3-yl]-6-(3-fluoropropoxy)nicotinamide], with 3.98 µM; and `O=C(N[C@@H]1COc2cccc(-c3cnc(C4CC4)nc3)c2C1)c1ccc(OCC(F)(F)F)nc1` [Example 109, N-[(3S)-5-(2-cyclopropylpyrimidin-5-yl)-3,4-dihydro-2H-chromen-3-yl]-6-(2,2,2-trifluoroethoxy)nicotinamide], with 0.126 µM; and `CCCN(CCC)C(=O)c1ccc(C(=O)N[C@@H]2COc3cccc(-c4cnc(OC)nc4)c3C2)cn1` [Example 110, N^5-[(3S)-5-(2-methoxypyrimidin-5-yl)-3,4-dihydro-2H-chromen-3-yl]-N^2,N^2-dipropylpyridine-2,5-dicarboxamide], with 2 µM.
Take `COc1ncc(-c2cccc3c2C[C@H](NC(=O)c2ccc(C(=O)NCCC(C)C)nc2)CO3)cn1` [Example 111, N^5-[(3S)-5-(2-methoxypyrimidin-5-yl)-3,4-dihydro-2H-chromen-3-yl]-N^2-(3-methylbutyl)pyridine-2,5-dicarboxamide]: the IC50 was 0.251 µM.
Turning to `COc1ncc(-c2cccc3c2C[C@H](NC(=O)c2ccc(C(=O)N(C)CC(C)C)nc2)CO3)cn1` [Example 112, N^2-isobutyl-N^5-[(3S)-5-(2-methoxypyrimidin-5-yl)-3,4-dihydro-2H-chromen-3-yl]-N^2-methylpyridine-2,5-dicarboxamide], 1.58 µM corresponded to half-maximal inhibition (IC50).
For `O=C(N[C@@H]1COc2cccc(-c3ccncc3)c2C1)c1ccc(OCc2nccs2)nc1` [Example 114, N-[(3S)-5-pyridin-4-yl-3,4-dihydro-2H-chromen-3-yl]-6-(1,3-thiazol-2-ylmethoxy)nicotinamide] the value was 1 µM.
Then `Cc1cc(COc2ccc(C(=O)N[C@@H]3COc4cccc(-c5ccncc5)c4C3)cn2)no1` [Example 115, 6-[(5-methylisoxazol-3-yl)methoxy]-N-[(3S)-5-pyridin-4-yl-3,4-dihydro-2H-chromen-3-yl]nicotinamide], with 0.316 µM; and `Cn1ccnc1COc1ccc(C(=O)N[C@@H]2COc3cccc(-c4ccncc4)c3C2)cn1` [Example 116, 6-[(1-methyl-1H-imidazol-2-yl)methoxy]-N-[(3S)-5-pyridin-4-yl-3,4-dihydro-2H-chromen-3-yl]nicotinamide], with 2 µM.
Then `O=C(N[C@@H]1COc2cccc(-c3ccncc3)c2C1)c1ccc(S(=O)(=O)C2CCCC2)nc1` [Example 117, 6-(cyclopentylsulfonyl)-N-[(3S)-5-pyridin-4-yl-3,4-dihydro-2H-chromen-3-yl]nicotinamide], with 0.501 µM.
